# Data reported in patent publication US20250171438A1 (Agios Pharmaceuticals, Inc., priority 2022, published 2025).
# Biological target: T1, human PAH with the R408W mutation (Homo sapiens, UniProt P00439, R408W)
# T1 construct: expressed in transfected cells
# T1 sequence (P00439 1-452 R408W): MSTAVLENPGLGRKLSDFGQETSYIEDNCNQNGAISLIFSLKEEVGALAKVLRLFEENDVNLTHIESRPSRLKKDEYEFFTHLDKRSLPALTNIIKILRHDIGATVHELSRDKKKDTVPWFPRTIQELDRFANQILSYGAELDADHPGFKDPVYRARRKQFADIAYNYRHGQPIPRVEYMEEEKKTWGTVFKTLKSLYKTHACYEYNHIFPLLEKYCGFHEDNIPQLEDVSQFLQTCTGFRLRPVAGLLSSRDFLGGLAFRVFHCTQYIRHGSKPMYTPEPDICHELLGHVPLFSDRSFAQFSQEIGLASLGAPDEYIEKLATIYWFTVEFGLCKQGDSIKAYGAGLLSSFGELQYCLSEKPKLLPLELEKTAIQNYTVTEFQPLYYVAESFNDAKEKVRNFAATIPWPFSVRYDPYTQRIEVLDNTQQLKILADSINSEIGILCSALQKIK
# Test: Cell Based Phenylalanine Flux Assay
# Conditions: A375 cells expressing human R408W PAH; 24 hrs compound incubation; 13C-Tyrosine by LC-MS; average where tested multiple times; read-out: AC50
# Description: Compounds were resuspended in DMSO, and 2-fold serial dilutions were performed to generate a 10-point dose curve. Compounds were added to plated cells in a total volume of 100 pal, and a final DMSO concentration of 0.5%. Each compound was tested in duplicate. Following compound addition, cells were placed in a 5% CO2, 37° C. tissue culture incubator for 24 hrs. After the incubation period, 20 μM sepiapterin and 800 μM 13C9,15N-Phenylalanine were added. After 4 hours, cell media was removed. An aliquot of 10 μl of cell media was combined with 200 μl of extraction buffer (80% acetonitrile/20% H2O) for each well. Determination of ^13C-Tyrosine concentration was assessed by liquid chromatography mass spectrometry.
# Where a compound was tested multiple times, the average value of the tests is reported.
row,AC50,SMILES
1,500 to 1000 nM,Cc1cnc(CCC(=O)N2CCc3[nH]cnc3[C@H]2c2nc3ccccc3s2)s1 [Example 1031]
2,> 5000 nM,"Cc1cnc(CCC(=O)N2CCc3[nH]cnc3[C@@H]2c2nc3ccccc3s2)s1 [Example 1032, (R)-1-(4-(benzo[d]thiazol-2-yl)-6,7-dihydro-1H-imidazo[4,5-c]pyridin-5(4H)-yl)-3-(5-methylthiazol-2-yl)propan-1-one]"
3,500 to 1000 nM,O=C(Cc1nc(C(F)(F)F)cs1)N1CCc2[nH]cnc2[C@H]1c1nc2ccccc2s1 [Example 1033]
4,> 5000 nM,"O=C(Cc1nc(C(F)(F)F)cs1)N1CCc2[nH]cnc2[C@@H]1c1nc2ccccc2s1 [Example 1034, (R)-1-(4-(benzo[d]thiazol-2-yl)-6,7-dihydro-1H-imidazo[4,5-c]pyridin-5(4H)-yl)-2-(4-(trifluoromethyl)thiazol-2-yl)ethenone]"
5,500 to 1000 nM,"O=C(CCc1nccs1)N1CCc2[nH]cnc2[C@H]1c1nc2cccc(F)c2s1 [Example 1035, (S)-1-(4-(7-fluorobenzo[d]thiazol-2-yl)-6,7-dihydro-1H-imidazo[4,5-c]pyridin-5(4H)-yl)-3-(thiazol-2-yl)propan-1-one]"
6,1000 to 5000 nM,"O=C(CCc1nccs1)N1CCc2[nH]cnc2[C@@H]1c1nc2cccc(F)c2s1 [Example 1036, (R)-1-(4-(7-fluorobenzo[d]thiazol-2-yl)-6,7-dihydro-1H-imidazo[4,5-c]pyridin-5(4H)-yl)-3-(thiazol-2-yl)propan-1-one]"
7,500 to 1000 nM,O=C(Cc1nccs1)N1CCc2[nH]cnc2[C@H]1c1nc2ccccc2s1 [Example 1037]
8,> 5000 nM,"O=C(Cc1nccs1)N1CCc2[nH]cnc2[C@@H]1c1nc2ccccc2s1 [Example 1038, (R)-1-(4-(benzo[d]thiazol-2-yl)-6,7-dihydro-1H-imidazo[4,5-c]pyridin-5(4H)-yl)-2-(thiazol-2-yl)ethenone]"
9,500 to 1000 nM,O=C(c1cnn2cc(F)ccc12)N1CCc2[nH]cnc2[C@H]1c1nc2ccccc2s1 [Example 1039]
10,> 5000 nM,"O=C(c1cnn2cc(F)ccc12)N1CCc2[nH]cnc2[C@@H]1c1nc2ccccc2s1 [Example 1040, (R)-(4-(benzo[d]thiazol-2-yl)-6,7-dihydro-1H-imidazo[4,5-c]pyridin-5(4H)-yl)(6-fluoropyrazolo[1,5-a]pyridin-3-yl)methanone]"
11,1000 to 5000 nM,Cc1nnc(C(=O)N2CCc3[nH]cnc3[C@H]2c2nc3ccccc3s2)s1 [Example 1041]
12,> 5000 nM,"Cc1nnc(C(=O)N2CCc3[nH]cnc3[C@@H]2c2nc3ccccc3s2)s1 [Example 1042, (R)-(4-(benzo[d]thiazol-2-yl)-6,7-dihydro-1H-imidazo[4,5-c]pyridin-5(4H)-yl)(5-methyl-1,3,4-thiadiazol-2-yl)methanone]"
13,> 5000 nM,"Cc1csc(C(=O)N2CCc3[nH]cnc3[C@@H]2c2nc3ccccc3s2)n1 [Example 1043, (R)-(4-(benzo[d]thiazol-2-yl)-6,7-dihydro-1H-imidazo[4,5-c]pyridin-5(4H)-yl)(4-methylthiazol-2-yl)methanone]"
14,1000 to 5000 nM,Cc1csc(C(=O)N2CCc3[nH]cnc3[C@H]2c2nc3ccccc3s2)n1 [Example 1044]
15,< 500 nM,O=C(c1cnn2ccc(Br)cc12)N1CCc2[nH]cnc2[C@H]1c1nc2ccccc2s1 [Example 1047]
16,1000 to 5000 nM,"O=C(c1cnn2ccc(Br)cc12)N1CCc2[nH]cnc2[C@@H]1c1nc2ccccc2s1 [Example 1048, (R)-(4-(benzo[d]thiazol-2-yl)-6,7-dihydro-1H-imidazo[4,5-c]pyridin-5(4H)-yl)(5-bromopyrazolo[1,5-a]pyridin-3-yl)methanone]"
17,500 to 1000 nM,O=C(c1n[nH]c2ccccc12)N1CCc2[nH]cnc2[C@H]1c1nc2ccccc2s1 [Example 1049]
18,> 5000 nM,"O=C(c1n[nH]c2ccccc12)N1CCc2[nH]cnc2[C@@H]1c1nc2ccccc2s1 [Example 1050, (R)-(4-(benzo[d]thiazol-2-yl)-6,7-dihydro-1H-imidazo[4,5-c]pyridin-5(4H)-yl)(1H-indazol-3-yl)methanone]"
19,500 to 1000 nM,O=C(c1ccns1)N1CCc2[nH]cnc2[C@H]1c1nc2ccccc2s1 [Example 1051]
20,> 5000 nM,"O=C(c1ccns1)N1CCc2[nH]cnc2[C@@H]1c1nc2ccccc2s1 [Example 1052, (R)-(4-(benzo[d]thiazol-2-yl)-6,7-dihydro-1H-imidazo[4,5-c]pyridin-5(4H)-yl)(isothiazol-5-yl)methanone]"
21,500 to 1000 nM,O=C(c1ncc(Cl)s1)N1CCc2[nH]cnc2[C@H]1c1nc2ccccc2s1 [Example 1053]
22,1000 to 5000 nM,"O=C(c1ncc(Cl)s1)N1CCc2[nH]cnc2[C@@H]1c1nc2ccccc2s1 [Example 1054, (R)-(4-(benzo[d]thiazol-2-yl)-6,7-dihydro-1H-imidazo[4,5-c]pyridin-5(4H)-yl)(5-chlorothiazol-2-yl)methanone]"

row,AC50,SMILES
1,500 to 1000 nM,Cc1cnc(C(=O)N2CCc3[nH]cnc3[C@H]2c2nc3ccccc3s2)s1 [Example 1055]
2,> 5000 nM,"Cc1cnc(C(=O)N2CCc3[nH]cnc3[C@@H]2c2nc3ccccc3s2)s1 [Example 1056, (R)-(4-(benzo[d]thiazol-2-yl)-6,7-dihydro-1H-imidazo[4,5-c]pyridin-5(4H)-yl)(5-methylthiazol-2-yl)methanone]"
3,500 to 1000 nM,O=C(c1nc(Cl)cs1)N1CCc2[nH]cnc2[C@H]1c1nc2ccccc2s1 [Example 1057]
4,1000 to 5000 nM,"O=C(c1nc(Cl)cs1)N1CCc2[nH]cnc2[C@@H]1c1nc2ccccc2s1 [Example 1058, (R)-(4-(benzo[d]thiazol-2-yl)-6,7-dihydro-1H-imidazo[4,5-c]pyridin-5(4H)-yl)(4-chlorothiazol-2-yl)methanone]"
5,< 500 nM,O=C(c1cncs1)N1CCc2[nH]cnc2[C@H]1c1nc2ccccc2s1 [Example 1059]
6,> 5000 nM,"O=C(c1cncs1)N1CCc2[nH]cnc2[C@@H]1c1nc2ccccc2s1 [Example 1060, (R)-(4-(benzo[d]thiazol-2-yl)-6,7-dihydro-1H-imidazo[4,5-c]pyridin-5(4H)-yl)(thiazol-5-yl)methanone]"
7,500 to 1000 nM,O=C(c1cnsc1)N1CCc2[nH]cnc2[C@H]1c1nc2ccccc2s1 [Example 1061]
8,> 5000 nM,"O=C(c1cnsc1)N1CCc2[nH]cnc2[C@@H]1c1nc2ccccc2s1 [Example 1062, (R)-(4-(benzo[d]thiazol-2-yl)-6,7-dihydro-1H-imidazo[4,5-c]pyridin-5(4H)-yl)(isothiazol-4-yl)methanone]"
9,< 500 nM,O=C(c1cnn2cc(Cl)ccc12)N1CCc2[nH]cnc2[C@H]1c1nc2ccccc2s1 [Example 1063]
10,> 5000 nM,"O=C(c1cnn2cc(Cl)ccc12)N1CCc2[nH]cnc2[C@@H]1c1nc2ccccc2s1 [Example 1064, (R)-(4-(benzo[d]thiazol-2-yl)-6,7-dihydro-1H-imidazo[4,5-c]pyridin-5(4H)-yl)(6-chloropyrazolo[1,5-a]pyridin-3-yl)methanone]"
11,< 500 nM,O=C(c1ccccc1)N1CCc2[nH]cnc2[C@H]1c1nc2ccccc2s1 [Example 1065]
12,> 5000 nM,"O=C(c1nncs1)N1CCc2[nH]cnc2[C@@H]1c1nc2ccccc2s1 [Example 1067, (R)-(4-(benzo[d]thiazol-2-yl)-6,7-dihydro-1H-imidazo[4,5-c]pyridin-5(4H)-yl)(1,3,4-thiadiazol-2-yl)methanone]"
13,500 to 1000 nM,O=C(c1nncs1)N1CCc2[nH]cnc2[C@H]1c1nc2ccccc2s1 [Example 1068]
14,500 to 1000 nM,O=C(c1cnn2c(Br)cccc12)N1CCc2[nH]cnc2[C@H]1c1nc2ccccc2s1 [Example 1069]
15,1000 to 5000 nM,"O=C(c1cnn2c(Br)cccc12)N1CCc2[nH]cnc2[C@@H]1c1nc2ccccc2s1 [Example 1070, (R)-(4-(benzo[d]thiazol-2-yl)-6,7-dihydro-1H-imidazo[4,5-c]pyridin-5(4H)-yl)(7-bromopyrazolo[1,5-a]pyridin-3-yl)methanone]"
16,< 500 nM,O=C(CC1CC1)N1CCc2[nH]cnc2[C@H]1c1nc2ccccc2s1 [Example 1071]
17,1000 to 5000 nM,"O=C(CC1CC1)N1CCc2[nH]cnc2[C@@H]1c1nc2ccccc2s1 [Example 1072, (R)-1-(4-(benzo[d]thiazol-2-yl)-6,7-dihydro-1H-imidazo[4,5-c]pyridin-5(4H)-yl)-2-cyclopropylethanone]"
18,1000 to 5000 nM,O=C(C1CC1)N1CCc2[nH]cnc2[C@H]1c1nc2ccccc2s1 [Example 1073]
19,> 5000 nM,"O=C(C1CC1)N1CCc2[nH]cnc2[C@@H]1c1nc2ccccc2s1 [Example 1074, (R)-(4-(benzo[d]thiazol-2-yl)-6,7-dihydro-1H-imidazo[4,5-c]pyridin-5(4H)-yl)(cyclopropyl)methanone]"
20,500 to 1000 nM,"O=C(CCC1CC1)N1CCc2[nH]cnc2[C@H]1c1nc2cc(F)ccc2s1 [Example 1075, (S)-3-cyclopropyl-1-(4-(5-fluorobenzo[d]thiazol-2-yl)-6,7-dihydro-1H-imidazo[4,5-c]pyridin-5(4H)-yl)propan-1-one]"
21,1000 to 5000 nM,"O=C(CCC1CC1)N1CCc2[nH]cnc2[C@@H]1c1nc2cc(F)ccc2s1 [Example 1076, (R)-3-cyclopropyl-1-(4-(5-fluorobenzo[d]thiazol-2-yl)-6,7-dihydro-1H-imidazo[4,5-c]pyridin-5(4H)-yl)propan-1-one]"
22,1000 to 5000 nM,"O=C(CCc1nccs1)N1CCc2[nH]cnc2[C@H]1c1nc2c(F)cccc2s1 [Example 1077, (S)-1-(4-(4-fluorobenzo[d]thiazol-2-yl)-6,7-dihydro-1H-imidazo[4,5-c]pyridin-5(4H)-yl)-3-(thiazol-2-yl)propan-1-one]"
